ChEMBL document CHEMBL3045939, “Synthesis and evaluation of fused pyrimidine derivatives as anti-inflammatory, antiproliferative and antimicrobial agents” (Med Chem Res, 2012)
Converted amounts (≈) assume the structure as drawn.

Tests used:
Rattus norvegicus [1] = test: Anti-inflammatory activity in Rattus norvegicus Wistar albino (rat) assessed as carrageenan-induced paw volume at 100 mg/kg, po administered 1 hr prior to carrageenan-challenge measured at 4 hr (reference value: 1.2825 +/- 0.0862 mm3); assay type: functional
Candida albicans = test: Antimicrobial activity against Candida albicans ATCC 24433 after 48 hr by broth micro dilution assay; assay type: functional; conditions: ATCC 24433, 48 h
Rattus norvegicus [2] = test: Anti-inflammatory activity in Rattus norvegicus Wistar albino (rat) assessed as carrageenan-induced paw volume at 100 mg/kg, po administered 1 hr prior to carrageenan-challenge measured at 5 hr (reference value: 1.24 +/- 0.0754 mm3); assay type: functional
Rattus norvegicus [3] = test: Anti-inflammatory activity in Rattus norvegicus Wistar albino (rat) assessed as carrageenan-induced paw volume at 100 mg/kg, po administered 1 hr prior to carrageenan-challenge measured at 1 hr (reference value: 1.2075 +/- 0.0405 mm3); assay type: functional
HEp-2 = test: Cytotoxicity against Homo sapiens (human) Hep2 cells after 24 hr by MTT assay; assay type: functional, cell-based; conditions: HEp-2, 24 h
[4] = Cytotoxicity against Homo sapiens (human) Chang cells after 24 hr by MTT assay; assay type: functional, cell-based
Staphylococcus aureus = test: Antimicrobial activity against Staphylococcus aureus ATCC 25923 after 24 hr by broth micro dilution assay; assay type: functional; conditions: ATCC 25923, 24 h
Escherichia coli = test: Antimicrobial activity against Escherichia coli ATCC 25922 after 24 hr by broth micro dilution assay; assay type: functional; conditions: ATCC 25922, 24 h
Aspergillus flavus = test: Antimicrobial activity against Aspergillus flavus ATCC 15517 after 48 hr by broth micro dilution assay; assay type: functional; conditions: ATCC 15517, 48 h
Rattus norvegicus [5] = test: Anti-inflammatory activity in Rattus norvegicus Wistar albino (rat) assessed as carrageenan-induced paw volume at 100 mg/kg, po administered 1 hr prior to carrageenan-challenge measured at 3 hr (reference value: 1.225 +/- 0.0484 mm3); assay type: functional
HeLa = test: Cytotoxicity against Homo sapiens (human) HeLa cells after 24 hr by MTT assay; assay type: functional, cell-based
Pseudomonas aeruginosa = test: Antimicrobial activity against Pseudomonas aeruginosa ATCC 27853 after 24 hr by broth micro dilution assay; assay type: functional; conditions: ATCC 27853, 24 h
Rattus norvegicus [6] = test: Anti-inflammatory activity in Rattus norvegicus Wistar albino (rat) assessed as carrageenan-induced paw volume at 100 mg/kg, po administered 1 hr prior to carrageenan-challenge measured at 2 hr (reference value: 1.4175 +/- 0.1931 mm3); assay type: functional
Rattus norvegicus [7] = test: Anti-inflammatory activity in Rattus norvegicus Wistar albino (rat) assessed as inhibition of carrageenan-induced paw edema at 100 mg/kg, po administered 1 hr prior to carrageenan-challenge measured at 1 hr relative to control; assay type: functional

Structure (SMILES)	Activity (Rattus norvegicus [1]) [mm3]	MIC (Candida albicans) [µg/mL]	Activity (Rattus norvegicus [2]) [mm3]	Activity (Rattus norvegicus [3]) [mm3]	IC50 (HEp-2) [µg/mL]	IC50 [4] [µg/mL]	MIC (Staphylococcus aureus) [µg/mL]	MIC (Escherichia coli) [µg/mL]	MIC (Aspergillus flavus) [µg/mL]	Activity (Rattus norvegicus [5]) [mm3]	IC50 (HeLa) [µg/mL]	MIC (Pseudomonas aeruginosa) [µg/mL]	Activity (Rattus norvegicus [6]) [mm3]	inhibition in vivo at 100 mg/kg (Rattus norvegicus [7]) [%]
COc1ccc(-n2c(-c3ccccc3)nc3ccc(Cl)cc3c2=O)cc1	1.14	12.5 (≈ 34.5 µM)	1.175	1.12	12.5 (≈ 34.5 µM)	> 25	3.12 (≈ 8.6 µM)	1.56 (≈ 4.3 µM)	> 100	1.21	< 50	3.12 (≈ 8.6 µM)	–	–
O=c1c2cc(Cl)ccc2nc(-c2ccccc2)n1-c1ccc(F)c(Cl)c1	1.3075	> 100	1.25	1.1875	< 6.25	< 6.25	> 100	> 100	> 100	1.17	< 25	100 (≈ 260 µM)	1.3525	–
O=c1c2cc(Cl)ccc2nc(-c2ccccc2)n1Cc1ccc(F)cc1	1.24	12.5 (≈ 34.3 µM)	1.2875	1.1525	10.9 (≈ 29.8 µM)	17.9 (≈ 49.2 µM)	0.78 (≈ 2.14 µM)	1.56 (≈ 4.28 µM)	25 (≈ 68.5 µM)	1.135	41.5 (≈ 114 µM)	3.12 (≈ 8.55 µM)	1.285	–
O=c1c2cc(Cl)ccc2nc(-c2ccccc2)n1Cc1ccc(Cl)cc1	1.2325	12.5 (≈ 32.8 µM)	1.1825	–	> 50	> 50	0.78 (≈ 2.05 µM)	1.56 (≈ 4.09 µM)	25 (≈ 65.6 µM)	1.195	> 200	3.12 (≈ 8.18 µM)	1.265	72.9
